Experimental data as given in the supplement of paper PMC4862054.

Tests used:
Conditions in all cases: incubation time: 72 h
[1] = tested on: BT-549; experiment: normalised response (% of control), CellTox Green; higher = less cell death (100 = DMSO, 0 = benzethonium chloride kill control)
How it was run: (§1)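 Two readouts were taken after 72 h: CellTox Green fluorescence (485/520 nm) first, then CellTiter-Glo luminescence after 10 min at room temperature. Breast cancer cell lines had been seeded as 20 µl suspension into 384-well plates holding compound at 5 concentrations in 10-fold steps across a compound-specific 10,000-fold range. Each value is a normalised signal at a single concentration, with plates scaled to 0.1 % DMSO (100) and a positive kill control (0).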

[2] = tested on: MDA-MB-468; experiment: as above
How it was run: as §1

[3] = tested on: MDA-MB-436; experiment: as above
How it was run: as §1

[4] = tested on: MFM-223; experiment: as above
How it was run: as §1

[5] = tested on: CAL-51; experiment: as above
How it was run: as §1

[6] = tested on: BT-474; experiment: as above
How it was run: as §1

[7] = tested on: MCF-10A; experiment: as above
How it was run: as §1

[8] = tested on: CAL-148; experiment: as above
How it was run: as §1

[9] = tested on: CAL-85-1; experiment: as above
How it was run: as §1

[10] = tested on: MDA-MB-453; experiment: as above
How it was run: as §1

[11] = tested on: HCC1937; experiment: as above
How it was run: as §1

[12] = tested on: HDQ-P1; experiment: as above
How it was run: as §1

[13] = tested on: CAL-120; experiment: as above
How it was run: as §1

[14] = tested on: HCC1599; experiment: as above
How it was run: as §1

[15] = tested on: DU-4475; experiment: as above
How it was run: as §1

[16] = tested on: HCC1143; experiment: as above
How it was run: as §1

[17] = tested on: MDA-MB-231; experiment: as above
How it was run: as §1

[18] = tested on: BT-549; experiment: normalised response (% of control), CellTiter-Glo; higher = more viable cells (100 = DMSO, 0 = benzethonium chloride kill control)
Protocol: (§2)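 DSRT, 72 h incubation, CellTox Green / CellTiter-Glo readout. Signal is normalised to DMSO and benzethonium chloride controls. Value is the normalised response at dose 3.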

[19] = tested on: MDA-MB-468; experiment: as above
Protocol: as §2

[20] = tested on: MDA-MB-436; experiment: as above
Protocol: as §2

[21] = tested on: MFM-223; experiment: as above
Protocol: as §2

[22] = tested on: CAL-51; experiment: as above
Protocol: as §2

[23] = tested on: BT-474; experiment: as above
Protocol: as §2

[24] = tested on: Hs578T; experiment: as above
Protocol: as §2

[25] = tested on: MCF-10A; experiment: as above
Protocol: as §2

[26] = tested on: CAL-148; experiment: as above
Protocol: as §2

[27] = tested on: CAL-85-1; experiment: as above
Protocol: as §2

[28] = tested on: MDA-MB-453; experiment: as above
Protocol: as §2

[29] = tested on: HCC1937; experiment: as above
Protocol: as §2

[30] = tested on: HDQ-P1; experiment: as above
Protocol: as §2

[31] = tested on: CAL-120; experiment: as above
Protocol: as §2

[32] = tested on: HCC1599; experiment: as above
Protocol: as §2

[33] = tested on: SK-BR-3; experiment: as above
Protocol: as §2

[34] = tested on: DU-4475; experiment: as above
Protocol: as §2

[35] = tested on: HCC1143; experiment: as above
Protocol: as §2

[36] = tested on: MDA-MB-231; experiment: as above
Protocol: as §2

[37] = tested on: Hs578T; experiment: normalised response (% of control), CellTox Green; higher = less cell death (100 = DMSO, 0 = benzethonium chloride kill control)
How it was run: as §1

Row | Structure (SMILES) | normalised response [1] [%] | normalised response [2] [%] | normalised response [3] [%] | normalised response [4] [%] | normalised response [5] [%] | normalised response [6] [%] | normalised response [7] [%] | normalised response [8] [%] | normalised response [9] [%] | normalised response [10] [%] | normalised response [11] [%] | normalised response [12] [%] | normalised response [13] [%] | normalised response [14] [%] | normalised response [15] [%] | normalised response [16] [%] | normalised response [17] [%] | normalised response [18] [%] | normalised response [19] [%] | normalised response [20] [%] | normalised response [21] [%] | normalised response [22] [%] | normalised response [23] [%] | normalised response [24] [%] | normalised response [25] [%] | normalised response [26] [%] | normalised response [27] [%] | normalised response [28] [%] | normalised response [29] [%] | normalised response [30] [%] | normalised response [31] [%] | normalised response [32] [%] | normalised response [33] [%] | normalised response [34] [%] | normalised response [35] [%] | normalised response [36] [%] | normalised response [37] [%]
1 | CO[C@H]1/C=C\C=C(/C)C(=O)NC2=CC(=O)C(NCCN(C)C)=C(C[C@@H](C)C[C@H](OC)[C@H](O)[C@@H](C)/C=C(\C)[C@@H]1OC(N)=O)C2=O [Alvespimycin] (10 nM) | 89.8 | 116 | 89.8 | 104 | 110 | 93.9 | 94.8 | 108 | 95.8 | 96.9 | 118 | 90.8 | 97.3 | 111 | 101 | 105 | 85.3 | 63.4 | 94.8 | 76.8 | 88.1 | 101 | 104 | 103 | 115 | 110 | 104 | 89.1 | 94.8 | 89.5 | 106 | 106 | 72.3 | 103 | 99 | 106 | 
2 | CCCCCCCCCCCCCCCCCCOP(=O)([O-])OC1CC[N+](C)(C)CC1 [Perifosine] (25 nM) | 97.1 | 95.6 | 112 | 93.5 | 93.7 | 102 | 106 | 103 | 109 | 99.7 | 88 |  | 103 | 97.9 | 104 | 89.7 | 92.4 | 101 | 100 | 104 | 93.4 | 96.8 | 101 | 100 | 105 | 88.8 | 98.5 | 87 | 103 | 108 | 109 | 101 | 91.3 | 96 | 101 | 105 | 105
3 | CS(=O)(=O)c1ccc(C2=C(c3ccccc3)C(=O)OC2)cc1 [Rofecoxib] (100 nM) | 95.7 | 118 | 104 | 88.2 | 111 | 104 | 88.5 | 101 | 107 | 106 | 68.7 |  | 104 | 101 | 108 | 98.7 | 117 | 106 | 104 | 105 | 104 | 105 | 101 | 109 | 114 | 109 | 102 | 108 | 95.8 | 98.7 | 104 | 99 | 110 | 102 | 108 | 106 | 103
4 | O=P1(NCCCl)OCCCN1CCCl (stereo not given) [Ifosfamide] (100 nM) | 112 | 194 | 102 | 97.8 | 90.4 | 100 | 102 | 90.8 | 110 | 89.3 |  | 88 | 98 | 95.1 | 97.9 | 74.1 | 87.4 | 102 | 94.8 | 94.9 | 91.2 | 68.5 | 97 | 96.8 | 97.9 | 92 | 95.1 | 88.8 | 98.2 | 98.9 | 94.3 | 101 | 89.5 | 95.3 | 99.7 | 91.8 | 56.1
5 | CC1(C)NC(=O)N(c2ccc([N+](=O)[O-])c(C(F)(F)F)c2)C1=O [Nilutamide] (100 nM) | 98.4 | 148 |  | 103 | 109 | 101 |  | 96.7 | 102 | 99.1 | 119 |  | 102 | 108 | 103 | 119 | 105 | 101 | 105 | 102 | 110 | 109 | 105 | 103 | 105 | 119 | 101 | 103 | 98.4 | 102 | 102 | 118 | 109 | 103 | 105 | 101 | 109
6 | Oc1nc(-c2ccc(C(F)(F)F)cc2)nc2c1CSCC2 [XAV-939] (100 nM) | 98.8 | 130 | 102 | 96.6 | 90.2 | 101 | 95.1 | 99.6 | 111 | 105 | 104 |  | 101 | 101 | 102 | 108 | 100 | 103 | 92 | 102 | 97 | 77.1 | 93.2 | 101 | 98.5 | 101 | 99.6 | 98.2 | 92.9 | 106 | 96.3 | 92.3 | 99.1 | 99.8 | 104 | 90.9 | 109
7 | CN(N=O)C(=O)N[C@@H](C=O)[C@@H](O)[C@H](O)[C@H](O)CO [Streptozocin] (100 nM) | 107 | 124 | 111 | 75.2 | 105 | 103 | 64.2 |  | 107 | 104 | 73.6 |  | 107 | 104 | 105 | 114 | 113 | 100 | 98.8 | 101 | 103 | 106 | 102 | 109 | 109 | 107 | 104 | 103 | 99.8 | 107 | 109 | 104 | 102 | 102 | 106 | 112 | 52.8
8 | Cn1c(Nc2ccc(C(F)(F)F)cc2)nc2cc(Oc3ccnc(-c4ncc(C(F)(F)F)[nH]4)c3)ccc21 [RAF265] (10 nM) | 98.1 | 158 | 90.1 | 103 | 92.7 | 96.2 | 64.3 | 103 | 106 | 108 |  | 52.6 | 101 | 107 | 103 | 116 | 104 | 99.5 | 102 | 109 | 105 | 83.3 | 107 | 106 | 118 | 113 | 99.6 | 106 | 100 | 99.2 | 107 | 116 | 108 | 105 | 102 | 110 | 98
9 | COc1cc2nccc(Oc3ccc(NC(=O)C4(C(=O)Nc5ccc(F)cc5)CC4)cc3)c2cc1OC [Cabozantinib] (10 nM) | 107 | 62.5 | 96.2 | 100 | 102 | 95.6 | 85.1 | 76 | 96.5 | 101 | 102 |  | 98.1 | 91.5 | 99.5 | 104 |  | 102 | 97.8 | 105 | 99.4 | 111 | 93.9 | 99.3 | 97.2 | 110 | 103 | 100 | 94.6 | 93.5 | 98 | 113 | 94.3 | 100 | 99.2 | 99.3 | 69.2
